Measurements: paper PMC9296036, “A peptide interfering with the dimerization of oncogenic KITENIN protein and its stability suppresses colorectal tumour progression” (Clinical and Translational Medicine, 2022)
Ends that are not written are not given here.

System: Caco2/KITENIN cells
Assay: Transwell cell invasion assay, Caco2/KITENIN cells
Assay type: cell-based
Conditions: Caco2 cells transfected with KITENIN-V5, KDIP versus scrambled peptide
Method: Cell invasion was measured using the transwell migration apparatus as described.[18] Briefly, cultured cells were seeded into the top of a 24‐well invasion chamber assay plate (Costar). Conditioned DMEM medium containing 10 μg/ml of fibronectin (Calbiochem) and 1% FBS was added to the bottom chamber as a chemoattractant. After 16 h (Caco2) or 48 h (HCT116) of incubation, the cells were stained. Cells at the top surface of the filters were wiped off with a cotton ball, and migrated cells on the bottom surface were counted in four random squares of .5 mm × .5 mm on each filter. The results are shown as the mean ± SEM of the number of cells per field for at least three independent experiments.
Effect of KAI1 C‐terminal interacting tetraspanin (KITENIN) dimerization‐interfering peptide (KDIP) on tumour growth and metastasis in in vivo mouse model of colorectal cancer (CRC). […] For the evaluation of metastasis, total fluorescence emitted from liver nodules expressing iRFP was measured and counted (left panel) or metastatic tumour growth was counted as nodules that migrated to the surface of the liver, and a metastatic score was obtained by multiplying it with size (middle panel). Metastatic score or total fluorescence is represented as mean ± SEM. […] The quantitative amount of each protein was measured by densitometry and is represented as an arbitrary score (mean ± SEM, n = 6). […]

YARVRRRGPRRWRLVSDEAV [KDIP]
cellular invasion by overexpressed KITENIN (in words): reduced
